Test [1] addresses recombinant human KIT tyrosine kinase protein (Homo sapiens (Human), UniProt P10721). Description: KIT tyrosine kinase assay (ADP-Glo). The conditions noted are these: Table 98. The class given is biochemical. On the technique in general: ADP-Glo turns the ADP formed in a reaction into a luminescent signal.
In test [2] the test system is GIST-T1 cells. The test is described as follows: GIST cell proliferation assay. The class given is cell-based, human. The settings on record: read-out: GIST-T1 IC50. The source says:
Gastrointestinal stromal tumors (GIST) are the most common adult sarcomas and the majority (85-90%) of GIST cases are caused by oncogenic mutations in the receptor tyrosine kinases (RTKs), KIT or PDGFRA, which result in constitutive activation of these receptors. Human GIST-derived cell line GIST-Ti which harboring a mutation in exon 11 of KIT was used for the measurement of inhibitory potency of the compounds.
GIST-T1 cells were purchased from Cosmo Bio (Tokyo, Japan) and cultured in 10% FBS containing DMEM. The assay was performed in 96-well plates and the IC50 of each compound was determined by CellTiter Glo Assay reagent and Victor X5 Multilabel Counter. Cells were seeded at a density of 2000 cells/90 μL/well in 96-well plates. Compound dilution, cell treatment and determination of IC50 were performed as described in the assay methods of M-07e Cell Proliferation Assay.

The subject of test [3] is M-07e cells. The test is described as follows: SCF-dependent M-07e cell proliferation assay. The class given is cell-based, human. The settings on record: Homo sapiens, M-07e, 72 h, read-out: M-07e IC50.
Where [4] appears, read: Homo sapiens, GISTT1, 72 h, GIST-T1 cells (mutation in exon 11 of KIT), CellTiter Glo, 3 days.

By IC50 is commonly meant the concentration needed to halve the response being measured.

Molecules are shown by their SMILES. Where two headings read alike, the source gives them in different places.

Sequence of recombinant human KIT tyrosine kinase protein (P10721 546-976): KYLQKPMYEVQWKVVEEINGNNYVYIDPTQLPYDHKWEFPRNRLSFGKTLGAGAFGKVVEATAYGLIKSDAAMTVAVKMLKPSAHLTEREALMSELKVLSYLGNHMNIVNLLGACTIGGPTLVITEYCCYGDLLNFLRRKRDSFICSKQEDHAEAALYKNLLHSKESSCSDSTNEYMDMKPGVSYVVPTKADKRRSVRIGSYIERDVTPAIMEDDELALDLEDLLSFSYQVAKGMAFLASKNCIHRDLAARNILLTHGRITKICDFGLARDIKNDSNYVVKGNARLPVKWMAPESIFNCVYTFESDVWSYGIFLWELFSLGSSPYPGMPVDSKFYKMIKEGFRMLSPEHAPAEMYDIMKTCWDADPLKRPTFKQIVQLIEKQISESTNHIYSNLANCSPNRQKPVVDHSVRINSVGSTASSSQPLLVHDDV

Regarding `Cn1c(=O)[nH]c2cc(C(=O)NCc3ccc(Oc4ccc(Cl)cc4)nc3)ccc21` [compound 34], the IC50 in test [1] came to 58 nM; in test [2] (GIST-T1 cells (mutation in exon 11 of KIT), CellTiter Glo, 3 days), 58 nM.

In the case of `CCn1c(=O)[nH]c2cc(C(=O)NCc3ccc(Oc4ccc(F)cc4)nc3)ccc21` [Example 35], the IC50 amounted to 83 nM in test [1] and 83 nM in test [2] (Homo sapiens, GISTT1, 72 h).

As to `O=C(NCc1ccc(Oc2ccccc2F)nc1)c1ccc2[nH]c(=O)[nH]c2c1` [Example 32], the IC50 in test [1] and in test [2] (setting [4]) was 29 nM in each case.

`Cn1c(=O)[nH]c2cc(C(=O)NCc3ccc(Oc4cccc(F)c4)nc3)ccc21` [Example 33]: the IC50 in test [1] and in test [2] (setting [4]) was 78 nM each time.

On to `O=C(NCc1ccc(Oc2ccc(Cl)cc2)nc1)c1ccc2[nH]c(=O)[nH]c2c1` [Example 31], for which the IC50 turned out to be 70 nM in test [1] and 70 nM in test [2] (Homo sapiens, GISTT1, 72 h).

For `O=C(NCc1ccc(C(F)(F)F)nc1)c1ccc2[nH]c(=O)[nH]c2c1` [Example 28], the IC50 in test [1] and in test [2] (setting [4]) was 3600 nM throughout.

On to `CC(C)n1c(=O)[nH]c2cc(C(=O)NCc3ccc(Oc4ccc(F)cc4)nc3)ccc21` [Compound 2, N-((6-(4-Fluorophenoxy)pyridin-3-yl)methyl)-1-isopropyl-2-oxo-2,3-dihydro-1H-benzim idazole-5-carboxamide], for which the IC50 in test [1] and in test [2] (setting [4]) was 450 nM each time.

`O=C(NCc1ccc(Oc2ccc(F)cc2)nc1)c1ccc2[nH]c(=O)[nH]c2c1` [Example 29]: the IC50 in test [1] and in test [2] (setting [4]) was 56 nM in each case.

Regarding `O=C(NCc1ccc(Oc2cccc(F)c2)nc1)c1ccc2[nH]c(=O)[nH]c2c1` [Example 30], the IC50 turned out to be 67 nM in test [1] and 67 nM in test [2] (Homo sapiens, GISTT1, 72 h).

Take `Cn1c(=O)[nH]c2cc(C(=O)NCc3ccc(Oc4ccccc4F)nc3)ccc21` [Compound 1, N-((6-(2-Fluorophenoxy)pyridin-3-yl)methyl)-1-methyl-2-oxo-2,3-dihydro-1H-benzimid azole-5-carboxamide]: the IC50 in test [1] and in test [2] (setting [4]) was 57 nM in each case.

As to `CC(C)N1CCc2cc(CNC(=O)c3ccc4c(c3)[nH]c(=O)n4C)cnc21` [Compound 17, N-((1-Isopropyl-2,3-dihydro-1H-pyrrolo[2,3-b]pyridin-5-yl)methyl)-1-methyl-2-oxo-2,3-dihydro-1H-benzimidazole-5-carboxamide], the IC50 came to 390 nM in test [3] (SCF-dependent M-07e cell proliferation, 3 days, CellTiter Glo) and 22 nM in test [1].

In the case of `CCC(C)N(C)c1ccc(CNC(=O)c2ccc3c(c2)[nH]c(=O)n3C)cn1` (centres unmarked) [Example 84], the IC50 in test [3] amounted to 180 nM; in test [1], 16 nM.

For `CN(c1ccc(CNC(=O)c2ccc3c(c2)[nH]c(=O)n3C)cn1)C12CC(C)(C1)C2` [Example 78], the IC50 in test [3] was determined as 150 nM; in test [1] it was 26 nM.

The record behind these values is patent publication US20260042747A1, “KIT INHIBITORS, COMPOUNDS, PHARMACEUTICAL COMPOSITIONS, AND METHODS OF USE THEREOF” (Alivexis, Inc., priority 2022, published 2026).
